Patent US8053416B2, “Isolation and structure of turbostatins 1-4” (Arizona Board of Regents, a body corporate of the State of …, priority 2005, dated 2011)

Experiments:
[1] = test system: murine P388 lymphocytic leukemia cell line; assay: Murine P388 lymphocytic leukemia cell line growth inhibition; assay type: cell-based; conditions: in DMSO
Experimental: (§1) Cancer Cell Line Methods. The National Cancer Institute's standard sulforhodamine B assay was used to assess inhibition of human cancer cell growth. The murine P388 lymphocytic leukemia cell line results were obtained using 10% horse serum/Fisher medium with incubation for 24 hours.

[2] = test system: SF268 (CNS glioblastoma); assay: NCI sulforhodamine B human cancer cell growth inhibition, SF268; assay type: cell-based; conditions: in DMSO
Experimental: as §1

[3] = test system: NCI-H460 (lung large cell); assay: NCI sulforhodamine B human cancer cell growth inhibition, NCI-H460; assay type: cell-based; conditions: in DMSO
Experimental: as §1

[4] = test system: KML20L2 (colon adenocarcinoma); assay: NCI sulforhodamine B human cancer cell growth inhibition, KML20L2; assay type: cell-based; conditions: in DMSO
Experimental: as §1

[5] = test system: MCF-7 (breast adenocarcinoma); assay: NCI sulforhodamine B human cancer cell growth inhibition, MCF-7; assay type: cell-based; conditions: in DMSO
Experimental: as §1

[6] = test system: DU-145 (prostate carcinoma); assay: NCI sulforhodamine B human cancer cell growth inhibition, DU-145; assay type: cell-based; conditions: in DMSO
Experimental: as §1

[7] = test system: BXPC-3 (pancreas adenocarcinoma); assay: NCI sulforhodamine B human cancer cell growth inhibition, BXPC-3; assay type: cell-based; conditions: in DMSO
Experimental: as §1

[8] = test system: human epidermoid carcinoma of the nasopharynx (KB) cell line; conditions: cited from earlier work
[9] = test system: in vivo L-1210 lymphoid leukemia; conditions: cited from earlier work
[10] = test system: murine P388 lymphocytic leukemia (in vivo); conditions: dose levels from 4.0 to 800 mg/kg, 123 = 23% increase in median survival time; cited from earlier work

Row | Cell line inhibition value GI50 [1] | Structure (SMILES) | Cell line inhibition value GI50 [2] | Cell line inhibition value GI50 [3] | Cell line inhibition value GI50 [4] | Cell line inhibition value GI50 [5] | Cell line inhibition value GI50 [6] | Cell line inhibition value GI50 [7] | Activity against KB cell line [8] | Activity against in vivo L-1210 lymphoid leukemia [9] | T/C [10]
1 | 0.15 µg/mL | CCCCCCCCCCC/C=C/[C@@H](O)[C@H](CO[C@@H]1O[C@H](CO)[C@@H](O)[C@H](O)[C@H]1O)NC(=O)CCCCCCCCCCCCCCCCC [Compound 2, 1-O-β-D-glucopyranosyl-2S-octadecanoylamino-3R-hydroxy-4E-hexadecene] | 1.9 µg/mL | 0.53 µg/mL | 0.35 µg/mL | 0.39 µg/mL | 1.7 µg/mL | 1.0 µg/mL | – | – | –
2 | 0.29 µg/mL | CCCCCCCCCCC/C=C/[C@@H](O)[C@H](CO[C@@H]1O[C@H](CO)[C@H](O)[C@H](O)[C@H]1O)NC(=O)CCCCCCCCCCCCCCCCC [Compound 4, 1-O-β-D-galactopyranosyl-2S-octadecanoylamino-3R-hydroxy-4E-hexadecene] | 1.5 µg/mL | 0.49 µg/mL | 0.41 µg/mL | 0.44 µg/mL | 2.6 µg/mL | 0.93 µg/mL | – | – | –

Further lines, the compound ahead of its results:

Row | Structure (SMILES) | Cell line inhibition value GI50 [1] | Cell line inhibition value GI50 [2] | Cell line inhibition value GI50 [3] | Cell line inhibition value GI50 [4] | Cell line inhibition value GI50 [5] | Cell line inhibition value GI50 [6] | Cell line inhibition value GI50 [7] | Activity against KB cell line [8] | Activity against in vivo L-1210 lymphoid leukemia [9] | T/C [10]
3 | CCCCCCCCCCC/C=C/[C@@H](O)[C@H](CO[C@@H]1O[C@H](CO)[C@@H](O)[C@H](O)[C@H]1O)NC(=O)CCCCCCCCCCCCCCC [Compound 1, 1-O-β-D-glucopyranosyl-2S-hexadecanoylamino-3R-hydroxy-4E-hexadecene] | 0.27 µg/mL | 0.98 µg/mL | 0.34 µg/mL | 0.35 µg/mL | 0.44 µg/mL | 1.6 µg/mL | 0.71 µg/mL | – | – | –
4 | NCCS(=O)(=O)O [taurine] | – | – | – | – | – | – | – | inactive | inactive | ≤ 123
5 | CCCCCCCCCCC/C=C/[C@@H](O)[C@H](CO[C@@H]1O[C@H](CO)[C@H](O)[C@H](O)[C@H]1O)NC(=O)CCCCCCCCCCCCCCC [Compound 3, 1-O-β-D-galactopyranosyl-2S-hexadecanoylamino-3R-hydroxy-4E-hexadecene] | 0.25 µg/mL | 1.9 µg/mL | 0.55 µg/mL | 0.48 µg/mL | 0.48 µg/mL | 2.6 µg/mL | 1.6 µg/mL | – | – | –
